US6313092A, “Method for increasing the electrotransport flux of polypeptides” (ALZA Corporation, priority 1998, dated 2001)
Where a SMILES comes first, the peptide text is derived from it. The star is where a group is joined. hSer(lactone) = O=C1OCC[C@@H]1N*

Assays:
[1] = In vitro electrotransport flux of the PTH analogs; type: in vitro ADME, human; conditions: retro-inverso versions, 1 mM donor pH 5.0, 100 μA cm^-2, 32° C.
Description: In vitro electrotransport studies were carried out in multi-compartment, custom-built, small volume cells using anodic drive. 1 mM PTH in 10 mM buffer was placed in the donor compartment and 25 mM final ionic strength receptor was placed in the receptor compartment. The receptor solution was 15 mM NaCl buffered to pH 7 with 10 mM imidazole, 0.1% bovine serum albumin (BSA) as a blocking agent, Tween 20 detergent and sodium azide as a bactericide.
Heat-stripped human cadaver stratum corneum was placed between the donor and receptor compartments with the epidermis side toward the receptor compartment. A constant DC current of […] (ie,0.1 mA/cm^2) was applied. Cells were maintained at 32° C. during the in vitro studies with receptor samples taken every 2 hours (receptor volume removed and replaced with "fresh" receptor at each sampling). Receptor samples were analyzed by reversed-phase HPLC.
Peak areas of PTH receptor samples were compared to standard curves of the same analog of known concentrations run at the same time using an analytical polymeric column, at a flow rate of 1.5 mL/min with a gradient from 10-50% B in ten minutes for elution. Buffer A was 0.1% trifluroacetic acid (TFA), 1% acetonitrile; Buffer B was 0.1% TFA, 98.9% acetonitrile. Analog concentrations were converted to mass flux and plotted vs. time.
For the in vitro electrotransport studies, described donors contained the retro-inverso versions (ie, D-amino acid residues were used and were assembled in reverse order than usual) of the PTH analogs (1 mM) in aqueous solutions at pH 5.0. This was because PTH analogs 1 and 2 were not stable when incubated with stripped stratum corneum, probably due to proteolytic digestion by skin proteases. The fully assembled electrotransport cells were incubated at 32±0.5° C. The skin contact area available for transport was 1.27 cm^2. The donor compartment volume was 200 μL; the receptor compartment volume was 350 μL. The receptor solution was separated from the cathode by an anion exchange membrane (Ionac™, Eletrosynthesis Co., Lancaster, N.Y.). Each cell was connected to a constant current source at a standard current density of 100 μA cm^-2. The voltage drop across each cell was monitored at approximately 2-hour intervals for the duration of the experiment.

[2] = biological target: T1, PTH receptor (Rattus norvegicus, UniProt P25961); assay: PTH analog activity assay: stimulation of adenylate cyclase (cAMP by SPA) in UMR106 cells
T1 sequence (P25961 27-591): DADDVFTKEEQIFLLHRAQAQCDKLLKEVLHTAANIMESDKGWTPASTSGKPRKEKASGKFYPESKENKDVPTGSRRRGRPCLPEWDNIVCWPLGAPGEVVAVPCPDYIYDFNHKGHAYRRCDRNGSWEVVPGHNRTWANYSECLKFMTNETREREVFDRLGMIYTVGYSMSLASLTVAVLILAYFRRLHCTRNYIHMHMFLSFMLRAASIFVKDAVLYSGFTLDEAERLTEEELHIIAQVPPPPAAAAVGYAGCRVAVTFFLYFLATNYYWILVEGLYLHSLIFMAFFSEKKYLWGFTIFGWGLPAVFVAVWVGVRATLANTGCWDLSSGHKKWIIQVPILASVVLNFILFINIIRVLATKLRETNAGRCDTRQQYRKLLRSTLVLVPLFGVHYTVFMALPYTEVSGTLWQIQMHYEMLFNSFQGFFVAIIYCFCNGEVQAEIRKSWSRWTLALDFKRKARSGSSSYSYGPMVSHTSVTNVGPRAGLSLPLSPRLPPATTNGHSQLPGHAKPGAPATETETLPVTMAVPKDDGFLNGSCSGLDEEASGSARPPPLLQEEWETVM
Description: PTH concentrations were determined by OD280 using an extinction coefficient of 6600 for the recombinant peptide and 5500 for the synthetic peptide. The rat osteosarcoma cell line UMR106 (ATCC CRL 1661) was used for in vitro testing of the peptide's ability to activate the PTH receptor. Activation of the PTH receptor leads to an intracellular rise in cAMP concentration.
The UMR106 cells were seeded at about 2.5×10^5 per well in a 48 well dish and allowed to grow to confluence. Assays were performed on cells 3-5 days postconfluence. The media (Dulbecco's modified Eagle's medium, DMEM, with fetal calf serum) was removed, and 1 mL of fresh media was applied. PTH (recombinant or synthetic) at various concentrations and 3-isobutyl-l-methyl xanthine (IBMX) at 1 mM final concentration were then added to each well of the plate, which was then incubated for 5 minutes at room temperature. The media was then removed and the cells quickly washed with ice cold PBS. The cells were then extracted twice with 1 mL of absolute ethanol. The two extractions were combined and the ethanol removed by evaporation. The extract was then redissolved in 1 mL of scintillation proximity buffer (SPA buffer) (Amersham, Arlington Heights, Ill.). The cAMP concentration was determined by assay using a scintillation proximity assay (SPA) kit available from Amersham.

[3] = Stability on incubation with stripped stratum corneum; type: in vitro ADME, human

`CC[C@H](C)[C@H](NC(=O)[C@H](CCC(=O)O)NC(=O)[C@H](CO)NC(=O)[C@@H](NC(=O)[C@@H](N)CO)C(C)C)C(=O)N[C@@H](CCC(N)=O)C(=O)N[C@@H](CC(C)C)C(=O)N[C@@H](CC(C)C)C(=O)N[C@@H](Cc1c[nH]cn1)C(=O)N[C@@H](CC(N)=O)C(=O)N[C@@H](CC(C)C)C(=O)NCC(=O)N[C@@H](CCCCN)C(=O)N[C@@H](Cc1c[nH]cn1)C(=O)N[C@@H](CCCNC(=N)N)C(=O)N[C@@H](CC(N)=O)C(=O)N[C@@H](CO)C(=O)N[C@@H](CC(C)C)C(=O)N[C@@H](CCCNC(=N)N)C(=O)N[C@@H](CCCNC(=N)N)C(=O)N[C@H](C(=O)N[C@@H](CCCNC(=N)N)C(=O)N[C@@H](Cc1c[nH]c2ccccc12)C(=O)N[C@@H](CC(C)C)C(=O)N[C@@H](CCCNC(=N)N)C(=O)N[C@@H](CCCCN)C(=O)N[C@@H](CCCCN)C(=O)N[C@@H](CC(C)C)C(=O)N[C@@H](CCCCN)C(=O)N[C@@H](CC(=O)O)C(=O)N[C@H](C(=O)N[C@@H](Cc1c[nH]cn1)C(=O)N[C@@H](CC(N)=O)C(=O)N[C@@H](Cc1ccc(O)cc1)C(=O)N[C@H]1CCOC1=O)C(C)C)C(C)C` [PTH analog 1] (H-SVSEIQLLHNLGKHRNSLRRVRWLRKKLKDVHNY-{hSer(lactone)}) gave an Average mass flux [1] of 1.4 μg cm^-2 h^-1, a median mass flux [1] of 0.3 μg cm^-2 h^-1 and an EC50 [2] of 0.9 nM. The “stability when incubated with stripped stratum corneum” value [3] was “not stable”.

With `CC[C@H](C)[C@H](NC(=O)[C@H](CCC(=O)O)NC(=O)[C@H](CO)NC(=O)[C@@H](NC(=O)[C@@H](N)CO)C(C)C)C(=O)N[C@@H](CCC(N)=O)C(=O)N[C@@H](CC(C)C)C(=O)N[C@@H](CC(C)C)C(=O)N[C@@H](Cc1c[nH]cn1)C(=O)N[C@@H](CC(N)=O)C(=O)N[C@@H](CO)C(=O)NCC(=O)N[C@@H](CCCCN)C(=O)N[C@@H](Cc1c[nH]cn1)C(=O)N[C@@H](CCCNC(=N)N)C(=O)N[C@@H](CC(N)=O)C(=O)N[C@@H](CO)C(=O)N[C@@H](CO)C(=O)N[C@@H](CCCNC(=N)N)C(=O)N[C@@H](CCCNC(=N)N)C(=O)N[C@@H](CO)C(=O)N[C@@H](CCCNC(=N)N)C(=O)N[C@@H](Cc1c[nH]c2ccccc12)C(=O)N[C@@H](CO)C(=O)N[C@@H](CCCNC(=N)N)C(=O)N[C@@H](CCCCN)C(=O)N[C@@H](CCCCN)C(=O)N[C@@H](CO)C(=O)N[C@@H](CCCCN)C(=O)N[C@@H](CC(=O)O)C(=O)N[C@H](C(=O)N[C@@H](Cc1c[nH]cn1)C(=O)N[C@@H](CC(N)=O)C(=O)N[C@@H](CO)C(=O)N[C@H]1CCOC1=O)C(C)C` [PTH analog 2] (H-SVSEIQLLHNSGKHRNSSRRSRWSRKKSKDVHNS-{hSer(lactone)}) the Average mass flux [1] was 4.1 μg cm^-2 h^-1, the median mass flux [1] was 3.2 μg cm^-2 h^-1 and the “stability when incubated with stripped stratum corneum” value [3] was “not stable”.
